Values quoted from earlier work, collected in patent US5385885A, “Inhibition of smooth muscle cell proliferation by antistasin and tick anticoagulant peptide” (priority 1991, dated 1995).

Tests used:
[1] = system: smooth muscle cell proliferative response to balloon catheter injury; conditions: rat model; Powell et al.; cited from earlier work
[2] = system: smooth muscle cells of rat carotid arteries; conditions: site-delivered; after balloon catheterization; Edelman et al.; cited from earlier work

| Molecule | Smooth muscle cell proliferative response to balloon catheter injury [1] | Proliferation of smooth muscle cells [2] |
| --- | --- | --- |
| CCOC(=O)[C@H](CCc1ccccc1)N[C@H]1CCCN2CCC[C@@H](C(=O)O)N2C1=O [cilazapril] | specifically inhibits |  |
| heparin |  | effectively diminished |
